Reference: patent US5120842A, “Silyl ethers of rapamycin” (American Home Products Corporation, priority 1991, dated 1992)
Converted amounts (≈) assume the structure as drawn. Like-named read-outs stand apart in the source and are kept apart here.

Assays:
[1] = test system: cells from the thymus of normal BALB/c mice (lymphocyte proliferation); test: comitogen-induced thymocyte proliferation procedure (LAF); type: cell-based; settings: Mus musculus
Method: Immunosuppressive activity was evaluated in an in vitro standard pharmacological test procedure to measure lymphocyte proliferation (LAF).
Briefly, cells from the thymus of normal BALB/c mice are cultured for 72 hours with PHA and IL-1 and pulsed with tritiated thymidine during the last six hours. Cells are cultured with and without various concentrations of rapamycin, cyclosporin A, or test compound. Cells are harvested and incorporated radioactivity is determined. Inhibition of lymphoproliferation is assessed as percent change in counts per minute from non-drug treated controls. The results are expressed as an IC50.

Candida albicans 3669 = test: antifungal plate test procedure; type: cell-based; settings: strain 3669, plate disk test, read-out: MIC to inhibit growth
Method: (§1) Antifungal activity of a representative compound of this invention was measured against 5 strains of Candida albicans using a plate test procedure for measurement of inhibition. The following represents the typical procedure used. Compound to be tested was placed on sterile dried 1/4" plate disks, and allowed to dry. Agar plates were seeded with fungi and allowed to solidify. The impregnated disks were placed on the seeded Agar surface and incubated for the time required for the particular culture.

[2] = test system: Candida albicans ATCC 10231; test: antifungal plate test procedure; type: cell-based; settings: ATCC10231, strain ATCC 10231, plate disk test, read-out: MIC to inhibit growth
Method: as §1

[3] = test system: Candida albicans ATCC 38246; test: antifungal plate test procedure; type: cell-based; settings: ATCC38246, strain ATCC 38246, plate disk test, read-out: MIC to inhibit growth
Method: as §1

[4] = test system: Candida albicans ATCC 38247; test: antifungal plate test procedure; type: cell-based; settings: ATCC38247, strain ATCC 38247, plate disk test, read-out: MIC to inhibit growth
Method: as §1

[5] = test system: Candida albicans ATCC 38248; test: antifungal plate test procedure; type: cell-based; settings: ATCC38248, strain ATCC 38248, plate disk test, read-out: MIC to inhibit growth
Method: as §1

Candida albicans = settings: in vitro and in vivo; cited from earlier work
[6] = cited from earlier work
[7] = model for multiple sclerosis; cited from earlier work
[8] = model for rheumatoid arthritis; cited from earlier work
IgE-like antibodies = settings: in vivo; cited from earlier work
[9] = read-out: IC50 (LAF), 72 h culture with PHA and IL-1, tritiated thymidine last six hours, table 1

Structure (SMILES)	IC50 [1, 9] [nM]	MIC (Candida albicans 3669) [µg/mL]	MIC [2] [µg/mL]	MIC [3] [µg/mL]	MIC [4] [µg/mL]	MIC [5] [ng/mL]	IC50 ([1]; read-out: IC50 (LAF), rapamycin-31-acetate and rapamycin evaluated contemporaneously) [nM]	antifungal activity (Candida albicans)	antitumor activity ([6]; in combination with picibanil)	antitumor activity ([6]; rapamycin alone)	effect in experimental allergic encephalomyelitis model [7]	effect in adjuvant arthritis model [8]	inhibition of formation of IgE-like antibodies (IgE-like antibodies)	IC50 ([1]; rapamycin-31-acetate and rapamycin evaluated contemporaneously, read-out: IC50 (LAF)) [nM]
CO[C@H]1C[C@@H]2CC[C@@H](C)[C@@](O)(O2)C(=O)C(=O)N2CCCC[C@H]2C(=O)O[C@H]([C@H](C)C[C@@H]2CC[C@@H](O[Si](C)(C)C(C)(C)C)[C@H](OC)C2)CC(=O)[C@H](C)/C=C(\C)[C@@H](O)[C@@H](OC)C(=O)[C@H](C)C[C@H](C)/C=C/C=C/C=C/1C [Example 1, Rapamycin 42-O-[(1,1-Dimethylethyl)dimethylsilyl]ether]	45.8	> 0.4	0.2 (≈ 0.194 µM)	> 0.4	0.2 (≈ 0.194 µM)	> 400	–	–	–	–	–	–	–	–
CO[C@H]1C[C@@H]2CC[C@@H](C)[C@@](O)(O2)C(=O)C(=O)N2CCCC[C@H]2C(=O)O[C@H]([C@H](C)C[C@@H]2CC[C@@H](O)[C@H](OC)C2)CC(=O)[C@H](C)/C=C(\C)[C@@H](O)[C@@H](OC)C(=O)[C@H](C)C[C@H](C)/C=C/C=C/C=C/1C [Rapamycin]	3.2	0.025 (≈ 0.0273 µM)	0.003 (≈ 0.00328 µM)	0.025 (≈ 0.0273 µM)	0.003 (≈ 0.00328 µM)	6 (≈ 0.00656 µM)	7.8	antifungal activity, particularly against Candida albicans, both in vitro and in vivo	shown to have antitumor activity	shown to have antitumor activity	effective	effective	effectively inhibited the formation of IgE-like antibodies	–
CO[C@H]1C[C@@H]2CC[C@@H](C)[C@@](O)(O2)C(=O)C(=O)N2CCCC[C@H]2C(=O)O[C@H]([C@H](C)C[C@@H]2CC[C@@H](O)[C@H](OC)C2)CC(=O)[C@H](C)/C=C(\C)[C@@H](OC(C)=O)[C@@H](OC)C(=O)[C@H](C)C[C@H](C)/C=C/C=C/C=C/1C [rapamycin-31-acetate, Rapamycin 31-acetate]	–	–	–	–	–	–	–	–	–	–	–	–	–	56.5
